Experimental data from ChEMBL document CHEMBL1201862, “PubChem BioAssay data set” (2004).
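Where inhibition never reached the appropriate level, the endpoint shown equals the highest concentration tested. Otherwise, values were interpolated linearly from a five-concentration, 48-hour dose response in 96-well plates. GI50 marks 50% less growth.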 Active and inactive are the calls of the source. Rule as the data show it: active = GI50 up to about 1.1 µM and inactive = higher.

How the values were obtained:
Assay in all cases: NCI-60 cell line screen, 48 h
Malme-3M = tested on: Malme-3M
M19-MEL = tested on: M19-MEL
CCRF-CEM = tested on: CCRF-CEM
A549 = tested on: A549
HCT-15 = tested on: HCT-15
DMS-273 = tested on: DMS-273
SNB-19 = tested on: SNB-19
SK-OV-3 = tested on: SK-OV-3
SK-MEL-5 = tested on: SK-MEL-5
UACC-257 = tested on: UACC-257
KM12 = tested on: KM12
EKVX = tested on: EKVX
CAKI-1 = tested on: CAKI-1
SW-620 = tested on: SW-620
RPMI-8226 = tested on: RPMI-8226
HOP-92 = tested on: HOP-92
UACC-62 = tested on: UACC-62
SF-539 = tested on: SF-539
OVCAR-5 = tested on: OVCAR-5
786-0 = tested on: 786-0
UO-31 = tested on: UO-31
ACHN = tested on: ACHN
SN12C = tested on: SN12C
HCC 2998 = tested on: HCC 2998
IGROV-1 = tested on: IGROV-1
U-251 = tested on: U-251
RXF 393 = tested on: RXF 393
NCI-H226 = tested on: NCI-H226
SF-295 = tested on: SF-295
SK-MEL-2 = tested on: SK-MEL-2
SNB-75 = tested on: SNB-75
OVCAR-4 = tested on: OVCAR-4
OVCAR-3 = tested on: OVCAR-3
SR = tested on: SR
HOP-62 = tested on: HOP-62
HL-60 = tested on: HL-60
NCI-H460 = tested on: NCI-H460
COLO 205 = tested on: COLO 205
K562 = tested on: K562
KM-20L2 = tested on: KM-20L2
HT-29 = tested on: HT-29
LXFL 529 = tested on: LXFL 529
TK-10 = tested on: TK-10
DMS-114 = tested on: DMS-114
SK-MEL-28 = tested on: SK-MEL-28
NCI-H23 = tested on: NCI-H23
OVCAR-8 = tested on: OVCAR-8
XF498 = tested on: XF498
SF-268 = tested on: SF-268
LOX IMVI = tested on: LOX IMVI
NCI-H522 = tested on: NCI-H522
M14 = tested on: M14
DLD-1 = tested on: DLD-1
HOP-18 = tested on: HOP-18
SNB-78 = tested on: SNB-78
A498 = tested on: A498
HCT-116 = tested on: HCT-116
MOLT-4 = tested on: MOLT-4

CC(C)(C)[C@H]1CO[C@]2(c3ccccc3)[C@@H]3C[C@@H]3C(=O)N12
GI50 (Malme-3M): > 100 µM (inactive)
GI50 (M19-MEL): > 100 µM (inactive)
GI50 (CCRF-CEM): > 10 µM (inactive)
GI50 (A549): > 100 µM (inactive)
GI50 (HCT-15): > 100 µM
GI50 (DMS-273): > 100 µM (inactive)
GI50 (SNB-19): > 100 µM (inactive)
GI50 (SK-OV-3): > 100 µM (inactive)
GI50 (SK-MEL-5): > 100 µM (inactive)
GI50 (UACC-257): > 100 µM (inactive)
GI50 (KM12): > 100 µM (inactive)
GI50 (EKVX): > 100 µM (inactive)
GI50 (CAKI-1): > 100 µM (inactive)
GI50 (SW-620): > 100 µM (inactive)
GI50 (RPMI-8226): > 100 µM (inactive)
GI50 (HOP-92): > 100 µM (inactive)
GI50 (UACC-62): > 100 µM (inactive)
GI50 (SF-539): > 100 µM (inactive)
GI50 (OVCAR-5): > 100 µM (inactive)
GI50 (786-0): > 100 µM (inactive)
GI50 (UO-31): > 100 µM (inactive)
GI50 (ACHN): > 100 µM (inactive)
GI50 (SN12C): > 100 µM (inactive)
GI50 (HCC 2998): > 100 µM (inactive)
GI50 (IGROV-1): > 100 µM (inactive)
GI50 (U-251): > 100 µM (inactive)
GI50 (RXF 393): > 100 µM (inactive)
GI50 (NCI-H226): > 100 µM (inactive)
GI50 (SF-295): > 100 µM (inactive)
GI50 (SK-MEL-2): > 100 µM (inactive)
GI50 (SNB-75): > 100 µM (inactive)
GI50 (OVCAR-4): > 100 µM (inactive)
GI50 (OVCAR-3): > 100 µM (inactive)
GI50 (SR): > 100 µM (inactive)
GI50 (HOP-62): > 100 µM (inactive)
GI50 (HL-60): > 100 µM (inactive)
GI50 (NCI-H460): > 100 µM (inactive)
GI50 (COLO 205): > 100 µM (inactive)
GI50 (K562): > 10 µM (inactive)
GI50 (KM-20L2): > 100 µM (inactive)
GI50 (HT-29): > 100 µM (inactive)
GI50 (LXFL 529): > 100 µM (inactive)
GI50 (TK-10): > 100 µM (inactive)
GI50 (DMS-114): > 100 µM (inactive)
GI50 (SK-MEL-28): > 100 µM (inactive)
GI50 (NCI-H23): > 100 µM (inactive)
GI50 (OVCAR-8): > 100 µM (inactive)
GI50 (XF498): > 100 µM (inactive)
GI50 (SF-268): > 100 µM (inactive)
GI50 (LOX IMVI): > 100 µM (inactive)
GI50 (NCI-H522): > 100 µM (inactive)
GI50 (M14): > 100 µM (inactive)
GI50 (DLD-1): > 100 µM (inactive)

c1ccc2c(c1)[nH]c1c2nc2ccccn21
GI50 (HOP-18): > 100 µM (inactive)
GI50 (A549): > 100 µM (inactive)
GI50 (HCT-15): > 100 µM
GI50 (DMS-273): > 100 µM (inactive)
GI50 (SNB-19): > 100 µM (inactive)
GI50 (SNB-78): > 100 µM (inactive)
GI50 (SK-OV-3): > 100 µM (inactive)
GI50 (SK-MEL-5): > 100 µM (inactive)
GI50 (UACC-257): > 100 µM (inactive)
GI50 (KM12): > 100 µM (inactive)
GI50 (EKVX): > 100 µM (inactive)
GI50 (CAKI-1): > 100 µM (inactive)
GI50 (SW-620): > 100 µM (inactive)
GI50 (RPMI-8226): > 100 µM (inactive)
GI50 (HOP-92): > 100 µM (inactive)
GI50 (UACC-62): > 100 µM (inactive)
GI50 (OVCAR-5): > 100 µM (inactive)
GI50 (786-0): > 100 µM (inactive)
GI50 (UO-31): > 100 µM (inactive)
GI50 (ACHN): > 100 µM (inactive)
GI50 (IGROV-1): > 100 µM (inactive)
GI50 (U-251): > 100 µM (inactive)
GI50 (A498): > 100 µM (inactive)
GI50 (HCT-116): > 100 µM (inactive)
GI50 (OVCAR-4): > 100 µM (inactive)
GI50 (NCI-H460): > 100 µM (inactive)
GI50 (COLO 205): > 100 µM (inactive)
GI50 (K562): > 100 µM (inactive)
GI50 (KM-20L2): > 100 µM (inactive)
GI50 (HT-29): > 100 µM (inactive)
GI50 (LXFL 529): > 100 µM (inactive)
GI50 (TK-10): 69 µM (inactive)
GI50 (DMS-114): > 100 µM (inactive)
GI50 (SK-MEL-28): > 100 µM (inactive)
GI50 (NCI-H23): > 100 µM (inactive)
GI50 (MOLT-4): > 100 µM (inactive)
GI50 (OVCAR-8): > 100 µM (inactive)
GI50 (SF-268): > 100 µM (inactive)
GI50 (M14): > 100 µM (inactive)
GI50 (DLD-1): > 100 µM (inactive)

Cc1nc(Nc2nnc(-c3cc([N+](=O)[O-])cc([N+](=O)[O-])c3C)o2)sc1C(=O)CC(=O)Cc1nc2ccc(Cl)cc2nc1O
GI50 (M19-MEL): > 100 µM (inactive)
GI50 (CCRF-CEM): > 100 µM (inactive)
GI50 (A549): > 100 µM (inactive)
GI50 (HCT-15): > 100 µM
GI50 (DMS-273): 50.5 µM (inactive)
GI50 (SNB-19): > 100 µM (inactive)
GI50 (SNB-78): 93.5 µM (inactive)
GI50 (SK-OV-3): > 100 µM (inactive)
GI50 (SK-MEL-5): > 100 µM (inactive)
GI50 (UACC-257): > 100 µM (inactive)
GI50 (KM12): > 100 µM (inactive)
GI50 (EKVX): 37.3 µM (inactive)
GI50 (CAKI-1): > 100 µM (inactive)
GI50 (SW-620): > 100 µM (inactive)
GI50 (RPMI-8226): > 100 µM (inactive)
GI50 (HOP-92): > 100 µM (inactive)
GI50 (UACC-62): 33.6 µM (inactive)
GI50 (SF-539): > 100 µM (inactive)
GI50 (OVCAR-5): > 100 µM (inactive)
GI50 (UO-31): > 100 µM (inactive)
GI50 (ACHN): > 100 µM (inactive)
GI50 (SN12C): > 100 µM (inactive)
GI50 (HCC 2998): > 100 µM (inactive)
GI50 (IGROV-1): > 100 µM (inactive)
GI50 (U-251): > 100 µM (inactive)
GI50 (RXF 393): > 100 µM (inactive)
GI50 (NCI-H226): > 100 µM (inactive)
GI50 (SF-295): > 100 µM (inactive)
GI50 (SK-MEL-2): > 100 µM (inactive)
GI50 (A498): > 100 µM (inactive)
GI50 (SNB-75): > 100 µM (inactive)
GI50 (HCT-116): > 100 µM (inactive)
GI50 (OVCAR-4): > 100 µM (inactive)
GI50 (SR): 77.6 µM (inactive)
GI50 (HOP-62): > 100 µM (inactive)
GI50 (HL-60): > 100 µM (inactive)
GI50 (NCI-H460): > 100 µM (inactive)
GI50 (COLO 205): > 100 µM (inactive)
GI50 (K562): 41.8 µM (inactive)
GI50 (KM-20L2): > 100 µM (inactive)
GI50 (HT-29): > 100 µM (inactive)
GI50 (LXFL 529): > 100 µM (inactive)
GI50 (TK-10): > 100 µM (inactive)
GI50 (DMS-114): > 100 µM (inactive)
GI50 (SK-MEL-28): > 100 µM (inactive)
GI50 (NCI-H23): > 100 µM (inactive)
GI50 (MOLT-4): > 100 µM (inactive)
GI50 (OVCAR-8): > 100 µM (inactive)
GI50 (XF498): > 100 µM (inactive)
GI50 (SF-268): > 100 µM (inactive)
GI50 (LOX IMVI): > 100 µM (inactive)
GI50 (NCI-H522): 61.4 µM (inactive)
GI50 (M14): > 100 µM (inactive)
